Source: patent US9382204B2, “Inhibitors targeting the DNA-binding domain of human STAT3 for treatment of metastatic cancers” (Indiana University Research and Technology Corporation, priority 2013, dated 2016)

System: STAT3
Test: STAT3-dependent luciferase reporter assay in MDA-MB-231-STAT3 stable cells
Assay type: cell-based, human
Conditions: 20 μM; for Rel. luciferase activity (%) 1: experiment 1, relative to DMSO; for Rel. luciferase activity (%) 2: experiment 2, relative to DMSO; for Rel. luciferase activity (%) 3: experiment 3, relative to DMSO; for Rel. luciferase activity (%) Mean: mean of experiments, relative to DMSO; for inhibition of luciferase expression compared to DMSO vehicle control: significant = p value less than 0.05
Procedure: FIG. 12. Identification of active inS3-54 analogues. (A) Effects of inS3-54 analogues on STAT3-dependent luciferase expression. MDA-MB-231 cells with stable STAT3-dependent luciferase expression were treated with DMSO control, 20 μM inSTAT3-54 or its analogues (A1-A79), followed by measurement of luciferase activity. (*p<0.05; **p<0.01; ***p<0.001).
MDA-MB-231-STAT3 stable cell line with high level of STAT3-dependent luciferase expression was exposed to candidate compounds at 20 μM in DMSO for 48 hours based on previous studies, and luciferase activity was measured using a luciferase assay kit (Promega, USA), following manufacturer's instructions. The final DMSO concentration in this and following assays was 0.1% (vol/vol).

| Compound | Rel. luciferase activity (%) 1 [%] | Rel. luciferase activity (%) 2 [%] | Rel. luciferase activity (%) 3 [%] | Rel. luciferase activity (%) Mean [%] | inhibition of luciferase expression compared to DMSO vehicle control |
| --- | --- | --- | --- | --- | --- |
| COc1ccc(C=C2C=C(c3ccccc3)N(c3ccc4ccccc4c3)C2=O)cc1 [Compound A56] | 150.7 | 143.4 | 76.2 | 123.4 |  |
| O=C1C(=Cc2ccc([N+](=O)[O-])cc2)C=C(c2ccccc2)N1c1ccc(Nc2ccccc2)cc1 [Compound A49] | 93.7 | 124.2 | 90.2 | 102.7 |  |
| Cc1ccc(N2C(=O)C(=Cc3ccc([N+](=O)[O-])cc3)C=C2c2ccccc2)cc1C [Compound A30] | 89.6 | 83.9 | 61.2 | 78.2 |  |
| COc1ccc(C=C2C=C(c3ccccc3)N(c3ccccc3Cl)C2=O)cc1 [Compound A57] | 59.5 | 97.9 | 51.5 | 69.6 |  |
| CCOC(=O)c1ccc(N2C(=O)C(=Cc3ccc(Cl)cc3)C=C2c2ccccc2)cc1 [Compound A74] | 65.9 | 105.7 | 74.5 | 82.0 |  |
| O=C1C(=Cc2ccc(-c3ccc([N+](=O)[O-])cc3)o2)C=C(c2ccccc2)N1Cc1ccccc1 [Compound A64] | 79.8 | 109.6 | 49.0 | 79.5 |  |
| CN(C)c1ccc(N2C(=O)C(=Cc3ccc([N+](=O)[O-])cc3)C=C2c2ccccc2)cc1 [Compound A77] | 109.7 | 103.0 | 77.0 | 96.6 |  |
| O=C1C(=Cc2ccc(-c3ccc([N+](=O)[O-])cc3)o2)C=C(c2ccccc2)N1c1cccc(Cl)c1 [Compound A10] | 87.4 | 110.4 | 103.7 | 100.5 |  |
| O=C1C(=Cc2ccc(Cl)cc2)C=C(c2ccccc2)N1c1ccc(-c2ccccc2)cc1 [Compound A20] | 63.2 | 85.1 | 63.8 | 70.7 | significantly inhibited |
| Cc1ccc(N2C(=O)C(=Cc3ccc(-c4cc(Cl)ccc4Cl)o3)C=C2c2ccccc2)cc1[N+](=O)[O-] [Compound A3] | 116.7 | 104.0 | 101.3 | 107.3 |  |
| CC(=O)c1cccc(N2C(=O)C(=Cc3ccc(Cl)cc3)C=C2c2ccccc2)c1 [Compound A65] | 86.6 | 103.9 | 91.2 | 93.9 |  |
| O=C(O)c1cccc(N2C(=O)C(=Cc3ccc(-c4cc(Cl)ccc4Cl)o3)C=C2c2ccccc2)c1 [Compound A2] | 120.3 | 107.5 | 114.1 | 114.0 |  |
| COC(=O)c1cccc(N2C(=O)C(=Cc3ccc(Cl)cc3)C=C2c2ccccc2)c1 [Compound A19] | 45.7 | 101.8 | 60.1 | 69.2 |  |
| COc1ccc(N2C(=O)C(=Cc3ccc([N+](=O)[O-])cc3)C=C2c2ccccc2)cc1 [Compound A33] | 33.8 | 92.3 | 99.1 | 75.1 |  |
| COc1ccc(C=C2C=C(c3ccccc3)N(c3ccc(O)cc3)C2=O)cc1 [Compound A72] | 34.2 | 58.1 | 34.1 | 42.1 | significantly inhibited |
| O=C1C(=Cc2ccc(Cl)cc2)C=C(c2ccccc2)N1c1ccc(Nc2ccccc2)cc1 [Compound A28] | 67.2 | 106.0 | 62.1 | 78.4 |  |
| Cc1ccc(N2C(=O)C(=Cc3ccc(Cl)cc3)C=C2c2ccccc2)cc1[N+](=O)[O-] [Compound A25] | 74.6 | 124.2 | 87.8 | 95.6 |  |
| COc1ccc(C=C2C=C(c3ccccc3)N(c3ccc(N(C)C)cc3)C2=O)cc1 [Compound A78] | 71.7 | 107.9 | 61.0 | 80.2 |  |
| COc1ccc(C=C2C=C(c3ccccc3)N(c3ccc(NC(C)=O)cc3)C2=O)cc1 [Compound A60] | 70.7 | 107.0 | 58.9 | 78.9 |  |
| COc1cccc(N2C(=O)C(=Cc3ccc(-c4ccc([N+](=O)[O-])cc4)o3)C=C2c2ccccc2)c1 [Compound A12] | 34.2 | 105.8 | 55.4 | 65.1 |  |
| COC(=O)c1cccc(N2C(=O)C(=Cc3ccc([N+](=O)[O-])cc3)C=C2c2ccccc2)c1 [Compound A34] | 61.1 | 103.6 | 80.8 | 81.9 |  |
| Cc1ccc(N2C(=O)C(=Cc3ccc(-c4ccc([N+](=O)[O-])cc4)o3)C=C2c2ccccc2)cc1C [Compound A5] | 113.5 | 109.3 | 92.2 | 105.0 |  |
| O=C(O)c1cc(N2C(=O)C(=Cc3ccc([N+](=O)[O-])cc3)C=C2c2ccccc2)ccc1O [Compound A70] | 99.0 | 97.9 | 92.8 | 96.5 |  |
| COc1ccc(C=C2C=C(c3ccccc3)N(c3cccc(Cl)c3Cl)C2=O)cc1 [Compound A58] | 78.9 | 81.8 | 36.8 | 65.8 |  |
| COc1ccccc1N1C(=O)C(=Cc2ccc([N+](=O)[O-])cc2)C=C1c1ccccc1 [Compound A32] | 58.2 | 99.2 | 58.6 | 72.0 |  |
| O=C1C(=Cc2ccc(Cl)cc2)C=C(c2ccccc2)N1c1ccc(Cl)cc1 [Compound A16] | 55.8 | 91.2 | 57.1 | 68.0 |  |
| Cc1ccc(N2C(=O)C(=Cc3ccc(-c4ccc([N+](=O)[O-])cc4)o3)C=C2c2ccccc2)cc1 [Compound A4] | 117.8 | 108.4 | 103.4 | 109.9 |  |
| COc1ccc(C=C2C=C(c3ccccc3)N(c3ccc(Cl)c(Cl)c3)C2=O)cc1 [Compound A52] | 39.5 | 141.9 | 77.7 | 86.4 |  |
| O=C1C(=Cc2ccc([N+](=O)[O-])cc2)C=C(c2ccccc2)N1c1ccccc1 [Compound A68] | 71.2 | 84.5 | 68.7 | 74.8 | significantly inhibited |
